# Source: patent US10399949B2, “NK1 receptor antagonist” (KISSEI PHARMACEUTICAL CO., LTD., priority 2015, dated 2019)
# Key:
# human CYP3A4 = molecular target: T1, human CYP3A4 (Homo sapiens, UniProt P08684); experiment: Inhibitory effect on CYP3A4 (Luciferin-IPA); type: in vitro ADME; conditions: test compound 10 μM, 30-minutes pre-incubation, Luciferin-IPA 3 μM
# T1 construct: purchased BD Biosciences
# Method: Inhibitory Effect on CYP3A4
# The dimethyl sulfoxide (DMSO) solution of the test compound with a concentration 1000 times higher than the evaluation concentration was prepared, and a reaction solution was prepared by diluting the solution. Enzyme reaction was performed by incubating in a potassium phosphate buffer solution (pH 7.4) containing 1 μM to 10 μM test compound, 3.2 mM magnesium chloride, 0.2 pmol human CYP3A4 (BD Biosciences), 0.5 mM reduced nicotinamide adenine dinucleotide phosphate (NADPH) and 3 μM Luciferin-IPA (Promega) at 37° C. for 10 minutes. The volume of the reaction solution was 50 μL/well. The 30-minutes pre-incubation group was incubated at 37° C. for 30 minutes before adding the substrate, the Luciferin-IPA solution (12.5 μL/well). At the end of the enzyme reaction, 50 μL/well of a Luciferin detection reagent (Promega) was added to the wells, and the plate was left at room temperature for 20 minutes. Then, the emission intensities were measured with Infinite M1000 (TECAN), and the enzyme activities (%) relative to the value of the group to which the test compound was not added. As a comparative example, aprepitant, which is an NK1 receptor antagonist, was tested in the same manner.
# Test was measured by the above test method, and the results are shown in Table 9 when the concentration of the test compound was 10 μM. In the table, Ex. No. means the Example number, and Pre-incubation (30 min) (%) means the enzyme activities (%) of the 30-minutes pre-incubation groups using the test compounds.
# human NK1 receptor [1] = molecular target: T2, human NK1 receptor (Homo sapiens, UniProt P25103); experiment: Affinity for human NK1 receptor (125I-substance P receptor binding test, membrane fraction); conditions: membrane fraction of human NK1 receptor-expressing 293T cells, room temperature 60 minutes, read-out: pIC50 (inverse logarithm of the concentration required for 50% inhibition of 125I-substance P binding) (converted)
# T2 construct: expressed in transfected cells; host or cells: 293T cells (RIKEN), transient transfection with pcDNA3.1(-) plasmid
# T2 sequence (P25103 whole entry): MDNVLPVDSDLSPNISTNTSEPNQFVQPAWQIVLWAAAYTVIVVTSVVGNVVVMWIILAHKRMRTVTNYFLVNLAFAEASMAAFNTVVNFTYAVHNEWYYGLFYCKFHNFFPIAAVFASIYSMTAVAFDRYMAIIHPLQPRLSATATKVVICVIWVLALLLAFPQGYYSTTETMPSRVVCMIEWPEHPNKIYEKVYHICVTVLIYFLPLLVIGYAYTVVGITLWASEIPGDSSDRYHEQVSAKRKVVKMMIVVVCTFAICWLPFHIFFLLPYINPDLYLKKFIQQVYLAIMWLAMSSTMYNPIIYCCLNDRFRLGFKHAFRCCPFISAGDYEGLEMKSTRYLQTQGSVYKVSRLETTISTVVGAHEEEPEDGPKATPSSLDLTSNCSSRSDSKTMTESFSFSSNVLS
# Method: Affinity for Human NK1 Receptor
# (3) Measurement of Binding Affinity to Human NK1 Receptor
# (3-1) Preparation of Membrane Fraction from Human NK1 Receptor-Expressing Cells
# Human NK1 receptor-expressing cells were prepared in a 175 cm^2 culture flask (Nippon Becton Dickinson). The formation of a complex of the human NK1 receptor expression plasmid and Lipofectamine 2000 was performed by calculating the culture area ratio and increasing the scale of the method described in the above 2-4 by the ratio. The human NK1 receptor-expressing cells were collected in a buffer solution for the membrane fraction preparation (50 mM Tris (Wako Pure Chemical), 120 mM sodium chloride (Wako Pure Chemical Industries), 5 mM potassium chloride (Wako Pure Chemical Industries), 1 mM ethylenediaminetetraacetic acid (Sigma), 0.002 mg/mL chymostatin (Peptide Institute), 0.04 mg/bacitracin (Wako Pure Chemical Industries), 0.005 mg/mL phosphoramidon (Peptide Institute) and 0.5 mM phenylmethylsulfonyl fluoride (Wako Pure Chemical Industries), pH7.4) and centrifuged at 1,880 g for 10 minutes, and the cell sediment was suspended in the buffer solution for the membrane fraction preparation. After freezing and thawing the cells once, the cells were homogenized using a Dounce-type homogenizer (cooled on ice, 1000 rpm, 20 times). The homogenized cell suspension was centrifuged at 20,000 rpm for 10 minutes, and the supernatant was removed to obtain cell sediment. The cell sediment was suspended again in the buffer solution for the membrane fraction preparation and homogenized using a Dounce-type homogenizer (cooled on ice, 1000 rpm, 30 times). The cell suspension was centrifuged at 20,000 rpm for 10 minutes, and the supernatant was removed to obtain cell sediment. The same homogenization and centrifugation were repeated again, and final cell sediment was obtained. The final cell sediment was suspended in a buffer solution for the receptor binding test (50 mM Tris (Wako Pure Chemical Industries), 3 mM manganese chloride (Wako Pure Chemical Industries), 0.002 mg/mL chymostatin (Peptide Institute), 0.04 mg/bacitracin (Wako Pure Chemical Industries) and 0.02% bovine serum albumin (Sigma), pH 7.4), and the protein concentration was measured using BCA Protein Assay Kit (Pierce).
# (3-2) Receptor Binding Test
# The buffer solution for the receptor binding test was dispensed to the wells of a 96-well assay plate (Greiner) at 22.5 μL/well. DMSO solutions of a test compound, which were prepared at an 80-time higher concentration using 100% dimethyl sulfoxide (DMSO), were added to the wells at 2.5 μL/well (final concentrations of 1 nM to 100 nM), and the solutions were mixed. As a radiolabeled ligand, ^125I-substance P (Substance P, [^125I]Tyr^8-, PerkinElmer) was used. ^125I-substance P was diluted with the buffer solution for the receptor binding test to a concentration resulting in […] and added to the 96-well assay plate, and the solutions were mixed. The membrane fraction prepared from the human NK1 receptor-expressing cells was diluted with the buffer solution for the receptor binding test to a concentration resulting in 8 to 10 μg/well, suspended until the suspension became in such a homogenous state that the suspension could flow through a 27G injection needle smoothly and then added to the 96-well assay plate at 150 μL/well. Then, the plate was incubated at room temperature for 60 minutes while shaking the plate. […]
# human NK1 receptor [2] = molecular target: T2, human NK1 receptor; experiment: Inhibitory effect on human NK1 receptor (substance P-induced increase in intracellular calcium concentration); type: cell-based; conditions: HEK-293T; substance P 0.1 μM; compound 1 μM; human NK1 receptor-expressing 293T cells; vehicle = 100%; read-out: SPRR (%) (Substance P-Response Remaining, intracellular calcium concentration)
# Method: Inhibitory Effect on Human NK1 Receptor
# (1) Preparation of Human NK1 Receptor-Expressing Cells
# Human NK1 receptor-expressing cells were prepared by the same methods as those described in 2-3 and 2-4 of Test Example 1.
# (2) Study on Inhibitory Effect on Increase in Intracellular Calcium Concentration
# The human NK1 receptor-expressing cells were washed with 300 μL/well of a washing solution (20 mM HEPES/Hanks Balanced Salt Solution (HBSS) pH7.3). A fluorescent calcium indicator (Fluo-4 Direct Calcium Assay Kit, Life Technologies, containing 0.42 mM probenecid and 0.1% bovine serum albumin, prepared according to the protocol of the product) was added to the wells at 150 μL/well, and the plate was incubated at 37° C. for 30 minutes in an incubator. Then, DMSO solutions of a test compound, which were prepared at an 80-time higher concentration using 100% dimethyl sulfoxide (DMSO), were added to the wells at 2.5 μL/well (final concentrations of 0.1, 1 and 10 μM), and the solutions were mixed. Then, the plate was further incubated at 37° C. for 30 minutes in an incubator. After 30 minutes, the intracellular calcium concentrations were measured immediately.
# The intracellular calcium concentrations were each measured as a fluorescent signal using FDSS® 7000 (Hamamatsu Photonics). A substance P (Peptide Institute, Inc.) solution which was prepared at 0.4 μM or 4 μM using an assay buffer (20 mM HEPES/Hanks Balanced Salt Solution (HBSS) pH 7.3 containing 0.1% bovine serum albumin) was added automatically to each well at 50 μL/well (final concentration of 0.1 or 1 μM) 10 seconds after starting reading, and the fluorescent signal was measured up to 120 seconds.
# The intracellular calcium concentration (%) of the cells to which a test compound was added was calculated by the equation below, where the fluorescent signal of the group to which the vehicle (DMSO) was added was regarded as 100%, and the fluorescent signal before the addition of substance P was regarded as 0%. Intracellular calcium concentration (%)=(Fluorescent signal of test compound addition group)/(Fluorescent signal of vehicle addition group)×100
# The intracellular calcium concentration (%) calculated was regarded as the remaining agonist activity of substance P (Substance P-Response Remaining: SPRR). In the table, Ex. No. means the Example number. SPRR (%) means the value obtained when the concentration of substance P was 0.1 μM and the concentration of the compound was 1 μM.
# T1 sequence (P08684 whole entry): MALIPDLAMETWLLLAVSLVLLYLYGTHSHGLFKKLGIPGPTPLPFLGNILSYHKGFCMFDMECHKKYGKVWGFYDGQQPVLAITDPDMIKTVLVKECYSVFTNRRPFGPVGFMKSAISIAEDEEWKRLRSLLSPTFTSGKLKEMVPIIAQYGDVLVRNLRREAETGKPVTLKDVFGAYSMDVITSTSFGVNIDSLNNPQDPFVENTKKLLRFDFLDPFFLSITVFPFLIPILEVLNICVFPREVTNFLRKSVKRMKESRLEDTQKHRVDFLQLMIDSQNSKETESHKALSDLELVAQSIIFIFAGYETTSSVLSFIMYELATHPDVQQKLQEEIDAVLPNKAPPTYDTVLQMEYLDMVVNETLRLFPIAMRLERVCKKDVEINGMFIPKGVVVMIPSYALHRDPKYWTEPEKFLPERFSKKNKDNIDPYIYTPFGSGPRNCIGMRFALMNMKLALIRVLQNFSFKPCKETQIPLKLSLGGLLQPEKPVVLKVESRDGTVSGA
Preincubation (30 min) (%) (enzyme activities relative to group without test compound) (human CYP3A4),IC50 (human NK1 receptor [1]),remaining activity at 1 µM (human NK1 receptor [2]),SMILES
18%,646 pM,4.1%,"Cc1cc(F)ccc1[C@H]1CN(C[C@H]2CC[C@@H](CC(=O)O)CC2)CC[C@@H]1C(=O)N(C)[C@@H](C)c1cc(C(F)(F)F)cc(C(F)(F)F)c1 [Example 13, cis-{4-[(3S,4S)-4-{[(S)-1-(3,5-Bistrifluoromethylphenyl)ethyl]methylcarbamoyl}-3-(4-fluoro-2-methylphenyl)piperidin-1-ylmethyl]cyclohexyl}acetic acid]"
15%,1350 pM,14%,"Cc1cc(F)ccc1[C@H]1CN(C[C@H]2CC[C@H](CC(=O)O)CC2)CC[C@@H]1C(=O)N(C)[C@@H](C)c1cc(C(F)(F)F)cc(C(F)(F)F)c1 [Example 14, trans-{4-[(3 S,4S)-4-{[(S)-1-(3,5-Bistrifluoromethylphenyl)ethyl]methylcarbamoyl}-3-(4-fluoro-2-methylphenyl)piperidin-1-ylmethyl]cyclohexyl}lacetic acid]"
